{"source": "patent US20130267474A1", "about": "“NOVEL PHYTOCHEMICALS FROM EXTRACTS OF MAPLE SYRUPS AND MAPLE TREES AND USES THEREOF” (UNIVERSITY OF RHODE ISLAND, priority 2010, published 2013)", "key": {"[1]": {"tested_on": "Caco-2 (human epithelial colorectal adenocarcinoma)", "experiment": "MTS cytotoxicity / antiproliferative assay", "type": "cell-based", "conditions": "Homo sapiens", "experimental": "(§1) Cell lines included three human colon cancer cells: HT-29 (human colon adenocarcinoma), HCT116 (human colon carcinoma) and Caco-2 (human epithelial colorectal adenocarcinoma). In addition, normal human colon cells are included: CCD-^18Co (human colon fibroblasts). All cell lines are obtained from the American Type Culture Collection (ATCC, Rockville, Md., USA) and maintained at the University of Rhode Island.\n(§2) The assay is carried out to measure the IC50 values for samples. […] Test samples and a positive control, etoposide 4 mg/mL (Sigma), are solubilized in DMSO by sonication. […] Control wells are also included on all plates. […] Each point on the curve is […]. Data (see tables 6 to 9) are expressed as mean±SE for three replications on each cell line."}, "[2]": {"tested_on": "HT-29 (human colon adenocarcinoma)", "experiment": "MTS cytotoxicity / antiproliferative assay", "type": "cell-based", "conditions": "Homo sapiens", "experimental": "as §1, §2"}, "[3]": {"tested_on": "HCT-116 (human colon carcinoma)", "experiment": "MTS cytotoxicity / antiproliferative assay", "type": "cell-based", "conditions": "Homo sapiens", "experimental": "as §1, §2"}, "[4]": {"tested_on": "CCD-18Co (normal human colon fibroblasts)", "experiment": "MTS cytotoxicity / antiproliferative assay", "type": "cell-based", "conditions": "Homo sapiens, CCD-18Co", "experimental": "as §1, §2"}, "[5]": {"tested_on": "colon cancer (HCT-116, Caco-2 and HT-29) cell lines", "experiment": "MTS antiproliferative assay, statements pooled over the colon cancer cell lines"}, "CCD-18Co cells": {"tested_on": "CCD-18Co cells", "experiment": "Flow cytometry analysis of cell cycle", "type": "cell-based, human", "conditions": "48 and 72 h", "experimental": "(§3) (2×10^5) are collected after the corresponding experimental periods, fixed in ice-cold ethanol:PBS (70:30, v/v) for 30 min at 4° C., further resuspended in PBS with 100 μg ml^−1 RNAse and 40 μg ml^−1 propidium iodide, and then incubated at 37° C. for 30 min. The DNA content (10,000 cells) is analyzed using a FACS Calibur instrument equipped with FACStation running FACS Calibur software (BD Biosciences, San Diego, Calif., USA). The analyses of cell cycle distribution are performed in triplicate for each treatment (tested at 50 μg/mL concentrations). The coefficient of variation, according to the ModFit LT Version 2 acquisition software package (Verity Software House, Topsham, Me., USA), is always less than 5%.\nas §3, with “Cells (2×10^5)” for “(2×10^5)”, “μg/mL” for “μg ml^−1”, “and” for “and then”, “min.” for “min. The”, “analysed” for “analyzed”, “treatment.” for “treatment (tested at 50 μg/mL concentrations).”"}}, "note": "Like-named read-outs stand apart in the source and are kept apart here."}
{"compound": "COc1cc([C@@H]2c3cc4c(cc3[C@@H](O[C@@H]3O[C@@H]5CO[C@@H](C)O[C@H]5[C@H](O)[C@H]3O)[C@H]3COC(=O)[C@H]23)OCO4)cc(OC)c1O", "note": "[Etoposide, reference compound]", "values": [{"measurement": "IC50", "setting": "[1]; Caco-2, 48 h, read-out: Caco-2 48 h (IC50), 48 h", "result": 18.9, "unit": "µM"}, {"measurement": "IC50", "setting": "[1]; Caco-2, 48 h, read-out: Caco-2 48 h(IC50), Table 6 maple compounds, 48 h, unit inferred", "result": 14.3, "unit": "µM"}, {"measurement": "IC50", "setting": "[1]; Caco-2, 72 h, 72 h, read-out: Caco-2 72 h (IC50)", "result": 16.1, "unit": "µM"}, {"measurement": "IC50", "setting": "[1]; Caco-2, 72 h, Table 6 maple compounds, 72 h, unit inferred, read-out: Caco-2 72 h(IC50)", "result": 12.3, "unit": "µM"}, {"measurement": "IC50", "setting": "[1]; Caco-2, 72 h, Table 7 maple extracts, 72 h, unit inferred, read-out: Caco-2 72 h(IC50)", "result": 16.1, "unit": "µM"}, {"measurement": "IC50", "setting": "[2]; HT-29, 48 h, read-out: HT-29 48 h (IC50), 48 h", "result": 13.4, "unit": "µM"}, {"measurement": "IC50", "setting": "[2]; HT-29, 48 h, read-out: HT-29 48 h(IC50), Table 6 maple compounds, 48 h, unit inferred", "result": 21.2, "unit": "µM"}, {"measurement": "IC50", "setting": "[2]; HT-29, 48 h, read-out: HT-29 48 h(IC50), Table 7 maple extracts, 48 h, unit inferred", "result": 13.4, "unit": "µM"}, {"measurement": "IC50", "setting": "[2]; HT-29, 72 h, 72 h, read-out: HT-29 72 h (IC50)", "result": 7.3, "unit": "µM"}, {"measurement": "IC50", "setting": "[2]; HT-29, 72 h, Table 6 maple compounds, 72 h, unit inferred, read-out: HT-29 72 h(IC50)", "result": 12.9, "unit": "µM"}, {"measurement": "IC50", "setting": "[2]; HT-29, 72 h, Table 7 maple extracts, 72 h, unit inferred, read-out: HT-29 72 h(IC50)", "result": 7.3, "unit": "µM"}, {"measurement": "IC50", "setting": "[3]; HCT-116, 48 h, read-out: HCT-116 48 h (IC50), 48 h", "result": 26.9, "unit": "µM"}, {"measurement": "IC50", "setting": "[3]; HCT-116, 48 h, read-out: HCT-116 48 h(IC50), Table 6 maple compounds, 48 h, unit inferred", "result": 28.5, "unit": "µM"}, {"measurement": "IC50", "setting": "[3]; HCT-116, 72 h, 72 h, read-out: HCT-116 72 h (IC50)", "result": 14.4, "unit": "µM"}, {"measurement": "IC50", "setting": "[3]; HCT-116, 72 h, Table 6 maple compounds, 72 h, unit inferred, read-out: HCT-116 72 h(IC50)", "result": 21.9, "unit": "µM"}, {"measurement": "IC50", "setting": "[3]; HCT-116, 72 h, Table 7 maple extracts, 72 h, unit inferred, read-out: HCT-116 72 h(IC50)", "result": 14.4, "unit": "µM"}, {"measurement": "IC50", "setting": "[4]; 48 h, read-out: CCD-18Co 48 h (IC50), 48 h", "result": 48.7, "unit": "µM"}, {"measurement": "IC50", "setting": "[4]; 48 h, read-out: CCD-18Co 48 h(IC50), Table 6 maple compounds, 48 h, unit inferred", "result": 45.1, "unit": "µM"}, {"measurement": "IC50", "setting": "[4]; 72 h, Table 6 maple compounds, 72 h, unit inferred, read-out: CCD-18Co 72 h(IC50)", "result": 42.4, "unit": "µM"}, {"measurement": "IC50", "setting": "[4]; 72 h, read-out: CCD-18Co 72 h (IC50)", "result": 43.9, "unit": "µM"}, {"measurement": "IC50", "setting": "[4]; CCD-18Co cells, read-out: IC50 of positive control, MTS", "result": "40 to 45", "unit": "µM"}, {"measurement": "IC50", "setting": "[4]; positive control, footnote of Table 16, read-out: IC50 for the CCD-18Co cells", "result": "30 to 40", "unit": "µM"}, {"measurement": "IC50", "setting": "[5]; Homo sapiens, read-out: IC50 (HT29, HCT116 and Caco-2), positive control, footnote of Table 16", "result": "10 to 20", "unit": "µM"}, {"measurement": "IC50", "setting": "[5]; Homo sapiens, read-out: IC50 of positive control, MTS, HT-29, HCT116 and Caco-2", "result": "15 to 25", "unit": "µM"}, {"measurement": "IC50", "setting": "[5]; read-out: IC50 of positive control, MTS, HT-29, HCT116 and Caco-2", "result": "10 to 20", "unit": "µM"}, {"measurement": "changes in cell cycle compared with control cells", "setting": "CCD-18Co cells", "result": "slight but significant changes in the S phase"}]}
